Patent US20060205669A1, “G-type peptides and other agents to ameliorate atherosclerosis and other pathologies” (The Regents of the University of California, priority 2004, published 2006)
“Also recorded” adds a separate entry of the source.

Columns and labels:
[1] = system: LDL receptor null mice; test: HDL protective capacity in LDL receptor null mice given peptide in drinking water; type: in vivo; settings: 0.25 or 0.5 mg per ml drinking water, 24 or 48 hrs, mouse HDL at 100 μg cholesterol/ml, FIG. 3
Description: D-4F designated as F, or the apoJ peptide made from D amino acids (D-J336, designated as J) was added to the drinking water of LDL receptor null mice (4 per group) at 0.25 or 0.5 mg per ml of drinking water. After 24- or 48-hrs blood was collected from the mice and their HDL was isolated and tested for its ability to protect against LDL-induced monocyte chemotactic activity. Assay controls included culture wells that received no lipoproteins (no addition), or control human LDL alone (designated as LDL, 200 μg cholesterol/ml), or control LDL+control human HDL (designated as +HDL, 350 μg HDL cholesterol). For testing the mouse HDL, the control LDL was added together with mouse HDL (+F HDL or +J HDL) to artery wall cell cultures. The mouse HDL was added at 100 μg cholesterol/ml respectively.

[2] = system: ApoE null mice; test: Protection against LDL-induced monocyte chemotactic activity by HDL from apo E null mice given oral peptides; type: in vivo; settings: peptide in drinking water (D-4F 5-50, D-J336 20-50 μg per ml), 24 hrs, murine HDL at 100 μg cholesterol/ml, FIG. 4
Description: FIG. 4 illustrates the effect of oral apoA-1 peptide mimetic and apoJ peptide on HDL protective capacity. ApoE null mice (4 per group) were provided with D-4F (designated as F) at 50, 30, 20, 10, 5 μg per ml of drinking water or apoJ peptide (designated as J) at 50, 30 or 20 μg per ml of drinking water. After 24 hrs blood was collected, plasma fractionated by FPLC and fractions containing LDL (designated as mLDL for murine LDL) and fractions containing HDL (designated as mHDL) were separately pooled and HDL protective capacity against LDL oxidation as determined by LDL-induced monocyte chemotactic activity was determined. For the assay controls the culture wells received no lipoproteins (no additions), mLDL alone (at 200 μg cholesterol/ml), or mLDL+standard normal human HDL (designated as Cont. h HDL, at 350 μg HDL cholesterol/ml).
For testing the murine HDL, mLDL together with murine HDL (+F mHDL or +J mHDL) were added to artery wall cell cultures. […] The murine HDL was used at 100 μg cholesterol/ml.

[3] = system: ApoE null mice; test: HDL and pre-beta HDL from apoE null mice fed solution-phase (fragment) synthesized D-4F: inhibition of LDL-induced monocyte chemotaxis; type: in vivo; settings: apoE null mice fed 5 micrograms solution-phase/fragment-synthesized D-4F, bled at 12 hours; FIG. 15
Excerpt: ApoE null mice were fed 5 micrograms of the D-4F synthesized as described above (Frgmnt) or the mice were given the same amount of mouse chow without D-4F (Chow). Twelve hours after the feeding was started, the mice were bled and their plasma was fractionated on FPLC.

[4] = system: Obese Zucker Rats; test: Plasma glucose and lipid hydroperoxides (LOOH) in Obese Zucker Rats; type: in vivo; settings: Obese Zucker Rats 26 weeks, 5.0 mg/kg/day intraperitoneal, 10 days; FIG. 12
Description: Obese Zucker Rats 26 weeks of age were bled and then treated with daily intraperitoneal injections of D-4F (5.0 mg/kg/day). After 10 days the rats were bled again plasma glucose and lipid hydroperoxides (LOOH) were determined. *p=0.027; ** p=0.0017.

[5] = system: Obese Zucker Rats; test: Balloon injury of the common carotid artery, intimal media ratio; type: in vivo; settings: 5 mg/kg/daily injected for 1 week before injury, sacrificed two weeks later, FIG. 13
Description: FIG. 13 illustrates the effect of D4F on balloon injury of the carotid artery. Sixteen week old Obese Zucker Rats were injected with D-4F (5 mg/kg/daily) for 1 week at which time they underwent balloon injury of the common carotid artery. Two weeks later the rats were sacrificed and the intimal media ratio determined.
Sixteen week old Obese Zucker Rats were injected with D-4F (5 mg/kg/daily) for 1 week at which time they underwent balloon injury of the common carotid artery. Two weeks later the rats were sacrificed and the intimal media ratio determined.

[6] = system: ApoE null mice; test: Trabecular bone mineral density in apoE null mice; type: in vivo; settings: drinking water, 6 weeks
[7] = system: mice fed an atherogenic diet; settings: 20 μg daily injected; cited from earlier work
[8] = system: human LDL; settings: human LDL treated in vitro; cited from earlier work
[9] = system: mice; settings: injection into mice; cited from earlier work
[10] = system: human volunteers; settings: infusion into humans; cited from earlier work

Ac-D-W-F-K-A-F-Y-D-K-V-A-E-K-F-K-E-A-F-NH2 (Ac-DWFKAFYDKVAEKFKEAF-NH2; also: D-amino acids, places not given here) [Peptide D-4F, apoA-I mimetic class A amphipathic helical peptide]
HDL protective capacity against LDL-induced monocyte chemotactic activity [1]: as active as 350 μg/ml of control human HDL | HDL protective capacity against LDL oxidation (LDL-induced monocyte chemotactic activity) [2]: as active as 350 μg/ml of normal human HDL | biological activity: producing HDL and pre-beta HDL that inhibit LDL-induced monocyte chemotaxis [3]: biologically active in mice; also recorded: very biologically active | symptoms of diabetes (plasma glucose) [4]: effective in mitigating symptoms of diabetes | restenosis (intimal media ratio) after balloon injury of the common carotid artery [5]: reduced | trabecular bone mineral density [6]: dramatically increased

Ac-D-W-L-K-A-F-Y-D-K-V-F-E-K-F-K-E-F-F-NH2 (Ac-DWLKAFYDKVFEKFKEFF-NH2) [Peptide 5F]
LDL from PBS-injected mice compared with LDL from peptide-injected mice: oxidation and induction of monocyte chemotactic activity [7]: more readily oxidized and more readily induced monocyte chemotactic activity

apo A-I: the major protein of HDL, apolipoprotein A-I
removal of seeding molecules (including HPODE and HPETE) from LDL [8]: removed seeding molecules from the LDL | LDL isolated after injection: oxidation by human artery wall cells and induction of monocyte chemotactic activity [9]: resistant to oxidation by human artery wall cells and did not induce monocyte chemotactic activity | LDL isolated after infusion: oxidation by human artery wall cells and induction of monocyte chemotactic activity [10]: resistant to oxidation by human artery wall cells and did not induce monocyte chemotactic activity
